According to the NIST ThermoML archive (doi:10.1021/je800101v):

What was measured:
[1] = for surface tension liquid-gas: Ring tensiometer; for mass density: 101.33 kPa, Liquid
[2] = xn = mol fraction of the nth substance listed; conditions: Ring tensiometer

OCCO [1,2-ethanediol]
[1]
Conditions	surface tension liquid-gas [mN/m]
298.15 K	47.79
303.15 K	47.57
308.15 K	47.25
313.15 K	47.1
318.15 K	46.4

OCCO [1,2-ethanediol] + CCCCCCO
[2], x2 = 0
Conditions	surface tension liquid-gas [mN/m]
298.15 K	47.79
303.15 K	47.57
308.15 K	47.25
313.15 K	47.1
318.15 K	46.4

CCCCCCCO [heptan-1-ol]
Conditions	surface tension liquid-gas [mN/m]
[1], 298.15 K	26.38

Conditions	mass density [kg/m3]
[1], 298.15 K, Vibrating tube method	818.11

CCCCCCO [hexan-1-ol]
[1], 298.15 K
Conditions	mass density [kg/m3]	surface tension liquid-gas [mN/m]
–	815.02	25.69

CCCCCCO [hexan-1-ol] + OCCO
surface tension liquid-gas [mN/m], [2]
Conditions	298.15 K	303.15 K	308.15 K	313.15 K	318.15 K
x1 = 0.0429	32.5	32.81	32.68	31.55	31.38
x1 = 0.1009	29.07	29.49	29.34	29.27	28.97
x1 = 0.2761	28	27.47	27.31	27.15	26.91
x1 = 0.3098	27.9	27.32	27.19	27.02	26.8
x1 = 0.35	27.38	27.12	26.98	26.81	26.63
x1 = 0.3942	27.32	26.98	26.83	26.68	26.47
x1 = 0.4468	27.24	26.78	26.63	26.47	26.31
x1 = 0.5079	27.03	26.48	26.35	26.17	25.97
x1 = 0.5405	26.82	26.38	26.25	26.07	25.88
x1 = 0.6061	26.71	26.17	26.01	25.85	25.67
x1 = 0.6452	26.62	25.97	25.78	25.65	25.48
x1 = 0.6897	26.51	25.75	25.58	25.38	25.21
x1 = 0.7407	26.43	25.48	25.3	25.16	24.99
x1 = 0.8	26.34	25.38	25.19	25.02	24.81
x1 = 0.8333	26.28	25.25	25.17	24.98	24.75
x1 = 0.9091	26.22	25.16	24.97	24.78	24.56
x1 = 0.9524	26.16	25.02	24.81	24.61	24.45

CCCCCO [pentan-1-ol]
[1], 298.15 K
Conditions	mass density [kg/m3]	surface tension liquid-gas [mN/m]
–	811.1	24.89
